Data on 74 compounds can be found in ChEMBL document CHEMBL3507680, “University of Dundee, Gates Library screen for HepG2 cell viability”.

The structures appear in SMILES notation.

This data set can be described thus: Human HepG2 cell viability assay in 384 well format. Also noted: dose 125 nL, time 70.5 hour; concentration not given beside the values. The conditions noted are these: HepG2 cells, read-out: Inhibition. Format: toxicity, cell-based.
Turning to `CNC(=O)COC(=O)c1cccc(-n2ccc(C(F)(F)F)n2)c1`, the cytotoxicity at 70.5 h stood at 0.44%.

Turning to `CC(C)c1nc(CN(C)S(=O)(=O)c2cccs2)cs1`, the cytotoxicity at 70.5 h came out at 1.87%.

With `CCOC(=O)NC1CCCN(c2cncc(Br)c2)C1` (centres undefined), the cytotoxicity at 70.5 h is 0.767%.

As for `CCCC(=O)NC1CCCN(c2nc3ccccc3cc2CO)C1` (centres undefined), the cytotoxicity at 70.5 h was found to be 13.7%.

On to `CCc1nnc2n1CCN(C(=O)CCc1ccc3c(c1)OCO3)C2`, for which the cytotoxicity at 70.5 h is -18.7%.

In the case of `NC(=O)Nc1ccc(C(=O)NCCn2cccc2)cc1`, the cytotoxicity at 70.5 h is -11.7%.

For the compound `Cc1ccc(C(=O)N(CC2CCCO2)c2ccncc2)o1` (centres undefined), the cytotoxicity at 70.5 h was -8.12%.

Consider `CC1CCN(C(=O)c2ccc(N(C)Cc3cnn(C)c3)nc2)CC1`, for which the cytotoxicity at 70.5 h is -7.81%.

With `Cc1cc(C(=O)NC2=NCCS2)c(C)n1-c1ccccn1`, the cytotoxicity at 70.5 h is -6.96%.

Consider `CCc1n[nH]c(C2CN(C(=O)COCC(F)(F)F)CCO2)n1` (centres undefined), for which the cytotoxicity at 70.5 h is -10.6%.

`CC1CCN(C(=O)NCCc2cc(F)ccc2F)C1` (centres undefined): the cytotoxicity at 70.5 h was -11.9%.

For the compound `COc1ccc(C(=O)CCC(=O)NCc2ncc(C)s2)cc1F`, the cytotoxicity at 70.5 h was -9.89%.

Consider `Cc1cc(C)n(CC(=O)N(CC2CN(C)CCO2)c2nccs2)n1` (centres undefined), for which the cytotoxicity at 70.5 h was -4.83%.

In the case of `Cc1cnn(CCC(=O)N(CC2CN(C)CCO2)c2nccs2)c1` (centres undefined), the cytotoxicity at 70.5 h was -12.8%.

Turning to `CCc1nc(CN(C)CC(=O)NC(C)C)cs1`, the cytotoxicity at 70.5 h is -13.3%.

On to `CCc1nc(CN(C)CC(=O)OC(C)(C)C)cs1`, for which the cytotoxicity at 70.5 h was -4.57%.

For the compound `CCOC(=O)C1CCCN(Cc2cc(C#N)n(C)c2C)C1` (centres undefined), the cytotoxicity at 70.5 h was -11.7%.

`Cc1cnn(CC(=O)N(CC2CN(C)CCO2)c2nccs2)c1` (centres undefined): the cytotoxicity at 70.5 h was -14.4%.

Turning to `O=C(c1cccnc1)N(Cc1ccncc1)C1CC1`, the cytotoxicity at 70.5 h is -4.09%.

For the compound `O=S(=O)(CCN1CCCC1Cn1cccn1)c1ccccc1` (centres undefined), the cytotoxicity at 70.5 h was -13.8%.

Regarding `CCc1nc(CCNC(=O)NC2CC(=O)N(C(C)(C)C)C2)cs1` (centres undefined), the cytotoxicity at 70.5 h was -5.26%.

`CS(=O)(=O)NC1CCN(C(=O)c2ccc(F)cc2)CC1`: the cytotoxicity at 70.5 h is -3.98%.

For `N#CCCN(CCC#N)C(=O)c1ccc(OCC2CC2)cc1`, the cytotoxicity at 70.5 h is -7.55%.

Consider `Cc1occc1C(=O)NCC(=O)NCCOc1ccc2c(c1)CCC2`, for which the cytotoxicity at 70.5 h is -10.4%.

For `NC(=O)CC1CCN(C(=O)c2csc(-c3ccccc3F)n2)CC1`, the cytotoxicity at 70.5 h was -18.8%.

On to `CCN1CCN(CC(O)c2ccc(Br)cc2)CC1` (centres undefined), for which the cytotoxicity at 70.5 h is -1.54%.

As to `c1ccc(C(c2ccccc2)N2CCN(CCn3cncn3)CC2)cc1`, the cytotoxicity at 70.5 h is -10.4%.

`NC(=O)CC1CCN(CC(O)c2ccc(Br)cc2)CC1` (centres undefined): the cytotoxicity at 70.5 h was -6.64%.

Turning to `Cc1cnn(C2CN(CC(=O)NCC3(c4ccccc4)CC3)C2)c1`, the cytotoxicity at 70.5 h was -6.95%.

For the compound `Cc1cnn(C2CN(CC(=O)NCC3(c4ccccc4)CCC3)C2)c1`, the cytotoxicity at 70.5 h is -2.82%.

As for `CC(=O)c1ccc(NC(=O)NC(C)c2ccc3c(c2)CC(=O)N3)cc1` (centres undefined), the cytotoxicity at 70.5 h amounted to 2.82%.

For the compound `CCc1nsc(N2CCN(C(=O)COc3ccccc3)CC2)n1`, the cytotoxicity at 70.5 h is -6.06%.

Take `O=C(NCC1(O)CCSCC1)c1ccoc1`: the cytotoxicity at 70.5 h is -1.38%.

In the case of `CC(C)c1nc(C2CCCN2C(=O)c2ccc3nncn3c2)no1` (centres undefined), the cytotoxicity at 70.5 h is 2.23%.

On to `CCc1nsc(N2CCN(CC(=O)NCc3cccnc3)CC2)n1`, for which the cytotoxicity at 70.5 h was -5.18%.

As for `COc1ccc(Cl)cc1NC(=O)CCNc1ccc(C#N)cn1`, the cytotoxicity at 70.5 h was -6.33%.

Turning to `COc1cccc(C(O)CNC(=O)CC2CCCCC2)c1` (centres undefined), the cytotoxicity at 70.5 h was -8.34%.

For the compound `COc1c(F)cc(NC(=O)NCc2nncn2C2CC2)cc1F`, the cytotoxicity at 70.5 h worked out at 0.912%.

For the compound `O=C1CN(CCCNC(=O)Nc2ccccn2)CCN1`, the cytotoxicity at 70.5 h stood at 1.68%.

Turning to `CC(C)(C)NC(=O)CN1CCCN(Cc2cc(C#N)ccc2F)CC1`, the cytotoxicity at 70.5 h amounted to 4.54%.

As for `Cc1nsc(N2CCN(CC(=O)NCc3ccc(F)cc3)CC2)n1`, the cytotoxicity at 70.5 h was -0.931%.

For the compound `CN(Cc1cnn(C)c1)S(=O)(=O)N1CCCCC1`, the cytotoxicity at 70.5 h was -5.36%.

As to `O=C1OCCN1CCN1CCCN(Cc2ccccc2F)CC1`, the cytotoxicity at 70.5 h was -4.26%.

For the compound `CCc1nsc(N2CCCN(C(=O)COc3ccccc3)CC2)n1`, the cytotoxicity at 70.5 h was -3.48%.

Take `COc1cccc(C(=O)NCc2ccccc2S(=O)(=O)N(C)C)c1`: the cytotoxicity at 70.5 h is -4.93%.

On to `COc1cccc(C(=O)NCc2ccccc2S(=O)(=O)N(C)CCO)c1`, for which the cytotoxicity at 70.5 h is -4.69%.

As for `COCCN1CCN(CC(O)c2cc(OC)ccc2OC)CC1` (centres undefined), the cytotoxicity at 70.5 h is -6.61%.

For the compound `O=C(NCCSC1CCCC1)c1ccc(F)cc1F`, the cytotoxicity at 70.5 h is -5.35%.

For the compound `NC(=O)N1CCCC(C(=O)NCc2ccccc2OC(F)(F)F)C1` (centres undefined), the cytotoxicity at 70.5 h is -9.4%.

Consider `CCc1ncncc1C(=O)NCCNC(=O)c1ccc(C)c(F)c1`, for which the cytotoxicity at 70.5 h is -8.42%.

In the case of `COC(=O)CNc1cc(C(=O)NCC(F)(F)F)cc(F)c1C`, the cytotoxicity at 70.5 h was -2.26%.

On to `COC(=O)CCNC(=O)c1ccc(NC(=O)N(C)CC(C)(C)C)cc1`, for which the cytotoxicity at 70.5 h was -6.05%.

For `O=C(CCc1ccccc1)N1CCN(C(=O)c2ccc[nH]2)CC1`, the cytotoxicity at 70.5 h is -12.3%.

As to `N#Cc1ccc(N2CCCC2Cn2cncn2)nc1` (centres undefined), the cytotoxicity at 70.5 h is -6.25%.

For the compound `CC(C)NC(=O)NCc1ccccc1NS(=O)(=O)c1ccccc1`, the cytotoxicity at 70.5 h amounted to 12.7%.

Consider `CC(C)c1nccn1C1CCCN(C(=O)c2ccn(C)c(=O)c2)C1` (centres undefined), for which the cytotoxicity at 70.5 h was -4.13%.

Consider `CN(CCCNS(=O)(=O)N1CCC2(CC1)OCCO2)c1ccccc1`, for which the cytotoxicity at 70.5 h is 22.7%.

For `CN(CCc1ccccn1)Cc1nccn1Cc1ccccc1`, the cytotoxicity at 70.5 h is 11.8%.

As for `CCNC(=O)NC(=O)CNC(C)(CC)c1nccs1` (centres undefined), the cytotoxicity at 70.5 h is -1.38%.

On to `CC(CC(=O)N1CCC(c2nnc3n2CCC3)CC1)n1cccc1` (centres undefined), for which the cytotoxicity at 70.5 h stood at 10.7%.

As to `CC(=O)c1c(F)cccc1NC1CCN(C(=O)C2CCCCC2)CC1`, the cytotoxicity at 70.5 h is -2.39%.

`O=C(NCCSC1CCCC1)c1c(F)cccc1F`: the cytotoxicity at 70.5 h was -6.07%.

Take `COc1ccc(CNC(=O)N2CCOCC2C2CC2)c(C)c1` (centres undefined): the cytotoxicity at 70.5 h was -6.07%.

With `CN(Cc1ccccc1OC(F)(F)F)C(=O)C1CC1`, the cytotoxicity at 70.5 h is -7.05%.

Turning to `Cc1ccccc1-n1cnnc1SCC1CCCCO1` (centres undefined), the cytotoxicity at 70.5 h was -9.11%.

With `CCOC(=O)C1CCN(Cc2c(O)ccc3oc4c(c23)CCCC4)CC1`, the cytotoxicity at 70.5 h is 11.2%.

In the case of `Cc1nn(CN(CC(C)C)C2CC2)c(=O)c2noc(C)c12`, the cytotoxicity at 70.5 h came to 14.5%.

Consider `O=C(NCC(O)COc1ccccc1)C1(c2ccc(F)cc2)CC1` (centres undefined), for which the cytotoxicity at 70.5 h was -10.3%.

In the case of `O=C(NCC(O)COc1cccc(F)c1)c1ccoc1` (centres undefined), the cytotoxicity at 70.5 h was -13.2%.

With `CC1COc2ccccc2N1C(=O)c1ccc(=O)n(C)c1` (centres undefined), the cytotoxicity at 70.5 h came to 22.1%.

With `CN(C)C(=O)C(C)(C)c1ccc2c(c1)OCCO2`, the cytotoxicity at 70.5 h was -5.25%.

For `O=S(=O)(NCCCN1CC=CC1)c1cncc(Cl)c1`, the cytotoxicity at 70.5 h came out at 29.6%.

On to `CC(C)(C)Cc1nnc(NCc2ccsc2)o1`, for which the cytotoxicity at 70.5 h came out at 28.5%.

Regarding `COc1ccnc(N2CCN(C(C)c3nc(C)no3)CC2)n1` (centres undefined), the cytotoxicity at 70.5 h was found to be 4.57%.
